33 compounds from patent US7163952B2, “Azole compound and medicinal use thereof” (Japan Tobacco Inc., priority 2001, dated 2007) can be followed below.

For orientation: melting point means the temperature of the solid-liquid transition. `CC(C)N(Cc1ccc(C(=O)O)cc1)c1nc(-c2ccc(NS(=O)(=O)c3ccc(C(C)(C)C)cc3)cc2)cs1` [Example 104, 4-((N-(4-(4-(4-tert-butylbenzenesulfonylamino)phenyl)-2-thiazolyl)-N-isopropylamino)methyl)benzoic acid] yielded a melting point of 178 to 180 °C.

Take `CC(C)N(c1ccc(C(=O)O)cc1)c1nc(-c2ccc(NC(=O)c3ccc(N4CCCCC4)cc3)cc2)cs1.Cl`: the melting point was 230 °C (dec.).

`CC(C)N(c1ccc(C(=O)O)cc1)c1nc(-c2cccc(OCc3ccc(C4CCCCC4)cc3)c2)cs1` [Example 141, 4-(N-(4-(3-(4-cyclohexylbenzyloxy)phenyl)-2-thiazolyl)-N-isopropylamino)benzoic acid]: the melting point is 189 to 190 °C.

For the compound `CC(C)N(Cc1ccc(C(=O)O)cc1)c1nc(-c2ccc(NC(=O)c3ccc(N4CCOCC4)cc3)cc2)cs1` [Example 63, 4-((N-isopropyl-N-(4-(4-(4-morpholinobenzoylamino)phenyl)-2-thiazolyl)amino)methyl)benzoic acid], the melting point is 250 °C (dec.).

On to `CCN(c1ccc(C(=O)O)cc1)c1nc(-c2cccc(OCc3ccc(C4CCCCC4)cc3)c2)cs1` [Example 140, 4-(N-(4-(3-(4-cyclohexylbenzyloxy)phenyl)-2-thiazolyl)-N-ethylamino)benzoic acid], for which the melting point fell in the range of 179 to 180 °C.

Turning to `CC(C)N(Cc1cccc(C(=O)O)c1)c1nc(-c2ccc(OCc3ccc(C4CCCCC4)cc3)cc2)cs1` [Example 87, 3-((N-(4-(4-(4-cyclohexylbenzyloxy)phenyl)-2-thiazolyl)-N-isopropylamino)methyl)benzoic acid], the melting point fell in the range of 196 to 197 °C.

`CN(Cc1ccc(C2CCCCC2)cc1)c1cc(-c2csc(N(C)Cc3ccc(C(=O)O)cc3)n2)cc(Cl)n1` [Example 228, 4-((N-(4-(2-chloro-6-(N-(4-cyclohexylbenzyl)-N-methylamino)-4-pyridyl)-2-thiazolyl)-N-methylamino)methyl)benzoic acid] yielded a melting point of 155 to 157 °C.

Turning to `CN(Cc1ccc(C2CCCCC2)cc1)c1ccc(-c2csc(N(C)c3ccc(C(=O)O)cc3)n2)cc1` [Example 132, 4-(N-(4-(4-(N-(4-cyclohexylbenzyl)-N-methylamino)phenyl)-2-thiazolyl)-N-methylamino)benzoic acid], the melting point fell in the range of 185 to 189 °C.

Compound `O=C(O)c1ccc(Nc2nc(-c3cc(Cl)ccc3OCc3ccc(C(F)(F)F)cc3)cs2)c(OCCC2CCCCC2)c1` [Example 179, 4-(4-(5-chloro-2-(4-trifluoromethylbenzyloxy)phenyl)-2-thiazolylamino)-3-(2-cyclohexylethoxy)benzoic acid] gave a melting point of 134 to 140 °C.

For the compound `CCN(c1ccc(C(=O)O)cc1)c1nc(-c2ccc(NC(=O)c3ccc(C4CCCCC4)cc3)cc2)cs1` [Example 8, 4-(N-(4-(4-(4-cyclohexylbenzoylamino)phenyl)-2-thiazolyl)-N-ethylamino)benzoic acid], the melting point is 250 °C (dec.).

`CN(c1ccc(C(=O)O)cc1)c1nc(-c2ccc(NC(=O)c3ccc(C4CCCCC4)cc3)cc2)cs1` [Example 19, 4-(N-(4-(4-(4-cyclohexylbenzoylamino)phenyl)-2-thiazolyl)-N-methylamino)benzoic acid]: the melting point is 250 °C (dec.).

Compound `CN(Cc1ccc(C(=O)O)cc1)c1nc(-c2ccc(N(C)C[C@H]3CC[C@H](c4ccccc4)CC3)cc2)cs1` [Example 213, trans-4-((N-methyl-N-(4-(4-(N-methyl-N-(4-phenylcyclohexylmethyl)amino)phenyl)-2-thiazolyl)amino)methyl)benzoic acid] came in with a melting point of 191 to 193 °C.

In turn, `COc1ccc(OCc2ccccc2)c(-c2csc(Nc3ccc(C(=O)O)cc3OCc3ccccc3)n2)c1` [Example 156, 3-benzyloxy-4-(4-(2-benzyloxy-5-methoxyphenyl)-2-thiazolylamino)benzoic acid] gave a melting point of 218 to 221 °C.

`CC(C)(C)c1ccc(COc2ccc(-c3csc(Cc4ccc(C(=O)O)cc4)n3)cc2)cc1` [Example 47, 4-(4-(4-(4-tert-butylbenzyloxy)phenyl)-2-thiazolylmethyl)benzoic acid]: the melting point lay within 223 to 228 °C.

The compound `CC(C)N(Cc1cccc(-c2nnn[nH]2)c1)c1nc(-c2ccc(OCc3ccc(C4CCCCC4)cc3)cc2)cs1` [Example 80, N-(4-(4-(4-cyclohexylbenzyloxy)phenyl)-2-thiazolyl)-N-isopropyl-(3-(1H-tetrazol-5-yl)benzyl)amine] yielded a melting point of 221 to 222 °C.

Turning to `COc1ccc(OCc2ccc(C(F)(F)F)cc2)c(-c2csc(Nc3ccc(C(=O)O)cc3OCCC3CCCCC3)n2)c1` [Example 171, 3-(2-cyclohexylethoxy)-4-(4-(5-methoxy-2-(4-trifluoromethylbenzyloxy)phenyl)-2-thiazolylamino)benzoic acid], the melting point lay within 111 to 114 °C.

In the case of `CC(C)(c1ccc(C(=O)O)cc1)c1nc(-c2ccc(NC(=O)c3ccc(N4CCCCC4)cc3)cc2)cs1` [Example 45, 4-(1-methyl-1-(4-(4-(4-piperidinobenzoylamino)phenyl)-2-thiazolyl)ethyl)benzoic acid], the melting point lay within 268 to 271 °C.

With `CN(Cc1ccc(CC(C)(C)C)cc1)c1ccc(-c2csc(N(C)Cc3ccc(C(=O)O)cc3)n2)cc1` [Example 229, 4-((N-(4-(4-(N-(4-(2,2-dimethylpropyl)benzyl)-N-methylamino)phenyl)-2-thiazolyl)-N-methylamino)methyl)benzoic acid], the melting point was 176 to 177 °C.

The compound `CN(CCC1Cc2ccccc2C1)c1ccc(-c2csc(N(C)Cc3ccc(C(=O)O)cc3)n2)cc1` [Example 223, 4-((N-(4-(4-(N-(2-(2-indanyl)ethyl)-N-methylamino)phenyl)-2-thiazolyl)-N-methylamino)methyl)benzoic acid] returned a melting point of 174 to 176 °C.

`COc1ccc(OCc2ccc(C(F)(F)F)cc2)c(-c2csc(N(CCC3CCCCC3)c3ccc(C(=O)O)cc3)n2)c1` [Example 170, 4-(N-(2-cyclohexylethyl)-N-(4-(5-methoxy-2-(4-trifluoromethylbenzyloxy)phenyl)-2-thiazolyl)amino)benzoic acid] returned a melting point of 104 to 107 °C.

Consider `CC(C)(C)c1ccc(COc2ccc3nc(-c4csc(N(CC5CCCCC5)c5ccc(C(=O)O)cc5)n4)oc3c2)cc1` [Example 188, 4-(N-(4-(6-(4-tert-butylbenzyloxy)-2-benzooxazolyl)-2-thiazolyl)-N-cyclohexylmethylamino)benzoic acid], for which the melting point is 230 °C (dec.).

Consider `CC(C)N(c1ccc(OCC(=O)O)cc1)c1nc(-c2ccc(NC(=O)c3ccc(N4CCCCC4)cc3)cc2)cs1` [Example 53, (4-(N-isopropyl-N-(4-(4-(4-piperidinobenzoylamino)phenyl)-2-thiazolyl)amino)phenoxy)acetic acid], for which the melting point is 220 °C (dec.).

Consider `CC(C)N(c1ccc(C(=O)[O-])cc1)c1nc(-c2ccc(OCc3ccc(C4CCCCC4)cc3)cc2)cs1.[Na+]` [Example 34, sodium 4-(N-(4-(4-(4-cyclohexylbenzyloxy)phenyl)-2-thiazolyl)-N-isopropylamino)benzoate], for which the melting point is 230 °C (dec.).

Take `CC(C)CN(c1ccc(C(=O)O)cc1)c1nc(-c2ccc(NC(=O)c3ccc(C4CCCCC4)cc3)cc2)cs1` [Example 17, 4-(N-(4-(4-(4-cyclohexylbenzoylamino)phenyl)-2-thiazolyl)-N-isobutylamino)benzoic acid]: the melting point is 230 °C (dec.).

Compound `O=C(O)c1ccc(N(CC2CCCCC2)c2nc(-c3nc4ccc(OCc5ccc(Cl)c(Cl)c5)cc4o3)cs2)cc1` [Example 187, 4-(N-cyclohexylmethyl-N-(4-(6-(3,4-dichlorobenzyloxy)-2-benzooxazolyl)-2-thiazolyl)amino)benzoic acid] returned a melting point of 182 to 189 °C.

For the compound `CN(C)CCN(c1ccc(C(=O)O)cc1)c1nc(-c2ccc(OCc3ccc(Cl)c(Cl)c3)cc2)cs1` [Example 97, 4-(N-(4-(4-(3,4-dichlorobenzyloxy)phenyl)-2-thiazolyl)-N-(2-dimethylaminoethyl)amino)benzoic acid], the melting point was 230 °C (dec.).

On to `O=C(O)c1cccc(Nc2nc(-c3ccc(NC(=O)c4ccc(C5CCCCC5)cc4)cc3)cs2)c1` [Example 27, 3-(4-(4-(4-cyclohexylbenzoylamino)phenyl)-2-thiazolylamino)benzoic acid], for which the melting point is 230 °C (dec.).

Compound `CC(C)Cc1ccc(CNc2ccc(-c3csc(N(CC4CCCCC4)c4ccc(C(=O)O)cc4)n3)cc2)cc1` [Example 131, 4-(N-cyclohexylmethyl-N-(4-(4-(4-isobutylbenzylamino)phenyl)-2-thiazolyl)amino)benzoic acid] gave a melting point of 167 to 169 °C.

With `CN(C)c1ccc(CCN(C)c2ccc(-c3csc(N(C)Cc4ccc(C(=O)O)cc4)n3)cc2)cc1` [Example 237, 4-((N-(4-(4-(N-(2-(4-dimethylaminophenyl)ethyl)-N-methylamino)phenyl)-2-thiazolyl)-N-methylamino)methyl)benzoic acid], the melting point fell in the range of 164 to 167 °C.

Compound `O=C(O)c1ccc(C(=O)c2nc(-c3ccc(OCc4ccc(C5CCCCC5)cc4)cc3)cs2)cc1` [Example 71, 4-(4-(4-(4-cyclohexylbenzyloxy)phenyl)-2-thiazolecarbonyl)benzoic acid] showed a melting point of 259 to 261 °C.

The compound `O=C(O)c1cc(Cc2nc(-c3cc(Cl)ccc3OCc3ccccc3)cs2)ccc1O` [Example 158, 5-(4-(2-benzyloxy-5-chlorophenyl)-2-thiazolylmethyl)-2-hydroxybenzoic acid] came in with a melting point of 212 to 213 °C.

`CC(C)CN(c1ccc(C(=O)O)cc1)c1nc(-c2ccc(NC(=O)c3ccccc3)cc2)cs1` [Example 15, 4-(N-(4-(4-benzoylaminophenyl)-2-thiazolyl)-N-isobutylamino)benzoic acid] had a melting point of 234 to 235 °C.

Compound `O=C(O)c1ccc(C2(c3nc(-c4ccc(OCc5ccc(C6CCCCC6)cc5)cc4)cs3)CCCC2)cc1` [Example 91, 4-(1-(4-(4-(4-cyclohexylbenzyloxy)phenyl)-2-thiazolyl)cyclopentyl)benzoic acid] gave a melting point of 248 to 251 °C.
